Reference: PubChem BioAssay AID2823 (Broad Institute, 2010)
Active and inactive are the calls of the source. The rule behind the calls is not given here.

target: RanGTP-importin-beta complex (human Ran / KPNB1); assay: Ran–importin-beta interaction inhibitors, confirmation, biochemical, FRET, CFP/YFP, cell-free homogeneous (AID 2823); details: CFP-Ran/YFP-importin-beta FRET ratio

| Compound | IC50 |
| --- | --- |
| CC1CC1c1ccc(/C=C(\C#N)C(=O)Nc2ccc(Cl)cc2)o1 (stereo not drawn) | > 50 µM (inactive) |
| CCOCCCNC(=S)NCCNc1nc2c(C)cccc2cc1C#N | 36.1 µM |
| CCOC(=O)N1CCN(c2cc(=O)n(-c3ccccc3C)c(=O)[nH]2)CC1 | > 50 µM (inactive) |
| CCOC(=O)c1c(NC(=O)C2CCCCC2)sc2c1CCN(C(C)C)C2 | > 50 µM (inactive) |
| CC(=O)c1ccc(-c2cccs2)s1 | 34.7 µM |
| COc1cc2c(cc1OC)CN(Cc1cccs1)CC2 | > 50 µM (inactive) |
| CCOc1ccc(-n2c(N)c(C(=O)NCc3ccco3)c3nc4ccccc4nc32)cc1 | 25 µM |
| CC(=O)N1CN2CN(C(C)=O)CC(C(=O)c3ccccc3)(C2)C1 | > 50 µM (inactive) |
| Cc1cc(O)ccc1NC1=CC(=O)CC(C)(C)C1 | > 50 µM (inactive) |
| CCn1nc(NC(=O)c2ccncc2)c2cc3ccc(C)cc3nc21 | 46.4 µM |
| CCCCN(C)C(=O)c1cccc(OC2CCN(CC(C)(C)C)CC2)c1 | > 50 µM (inactive) |
| CN(C)c1nc(-c2ccccc2)cc(C(F)(F)F)c1C#N | 10.7 µM |
| COc1ccc(-c2nc(NC(=O)c3n[nH]c(=O)c4ccccc34)sc2C)cc1 | > 50 µM (inactive) |
| CCc1cc(=O)oc2c(CNCc3ccc(OC)cc3OC)c(O)c(Cl)cc12 | 14.4 µM |
| COC(=O)C1=CN(Cc2ccccc2)C=C(C(=O)OC)C1c1ccc(O)c(OC)c1 | > 50 µM (inactive) |
| CCOC(=O)c1ccc(CNC(=O)CSc2nnc(-c3ccncc3)o2)cc1 | > 50 µM (inactive) |
| CCN(CC)C(=O)Oc1ccc2c(c1)O/C(=C\c1ccco1)C2=O | 7.92 µM |
| COc1ccccc1C#Cc1ccc2c(=O)c3ccccc3n(C)c2c1 | 0.698 µM |
| CC1=Nc2ccccc2/C1=C\c1sc(Nc2ccc(C)cc2)nc1O | > 50 µM (inactive) |
| N=c1c(S(=O)(=O)c2ccc(Br)cc2)cc2c(=O)n3ccccc3nc2n1C1CCCCC1 | > 50 µM (inactive) |
| C=CCN1C(=O)/C(=C\c2ccc(OC(=O)c3ccco3)c(OC)c2)SC1=S | > 50 µM (inactive) |
| CCSc1nnc(-c2cc(Br)ccc2N=Cc2c(C)[nH]n(-c3ccccc3)c2=O)c(=O)[nH]1 | > 50 µM (inactive) |
| Cc1cc(C)c(C#N)c(Nc2ccccc2C)n1 | > 50 µM (inactive) |
| CCC(=O)N(C)/C=C1\Sc2ccccc2C1=O | > 50 µM (inactive) |
| Cc1c(N=Cc2c(O)n(Cc3ccco3)c(=O)c3ccccc23)c(=O)n(-c2ccccc2)n1C | > 50 µM (inactive) |
| Cc1cnc(C(=O)Nc2ccc(S(=O)(=O)N(C(C)C)C(C)C)cc2)cn1 | > 50 µM (inactive) |

| Compound | IC50 |
| --- | --- |
| COCCNC(=O)c1c(NC(=O)c2ccco2)n(Cc2ccccc2)c2nc3ccccc3nc12 | 1.91 µM |
| CCN(CC)c1ccc(/C=N/NC(=O)c2c(Cl)cnn2C)c(O)c1 | 6.2 µM |
| CCOC(=O)c1c(NC(=O)Cc2ccccc2)sc2c1CCN(CC)C2 | > 50 µM (inactive) |
| Cc1ccc(NC(=O)COC(=O)Cc2ccsc2)c(C)c1 | > 50 µM (inactive) |
| CCN(/N=C/C=C/c1ccccc1)c1cc(=O)n(C)c(=O)[nH]1 | > 50 µM (inactive) |
| N#CC1=C(N)Oc2cc3c(cc2C1c1ccc(Cl)cc1)OCO3 (stereo not drawn) | > 50 µM (inactive) |
| Cc1ccc(N=Cc2cc3c(cc2O)OC(N)=C(C#N)C3c2ccccc2)cc1 (stereo not drawn) | > 50 µM (inactive) |
| Cc1cc(S(=O)(=O)N2CCN(c3c(C)cccc3C)CC2)ccc1F | > 50 µM (inactive) |
| Cc1ccc2cc(C#N)c(N3CCCN(S(=O)(=O)c4ccc(F)cc4)CC3)nc2c1 | 31.6 µM |
| CCOC(=O)C1=C(C)NC2=C(C(=O)C(C(=O)OCC)C(c3ccccc3OC)C2)C1c1ccccn1 (stereo not drawn) | 26.2 µM |
| Cc1cccc(-c2nnc(NC(=O)c3ccc(N4C(=O)CCC4=O)cc3)s2)c1 | > 50 µM (inactive) |
| CCN1CCc2c(sc(NC(=O)Cc3ccccc3)c2C(=O)OC)C1 | > 50 µM (inactive) |
| CC(c1nc2ccccc2n1Cc1ccccc1)N1CCCCC1 (stereo not drawn) | > 50 µM (inactive) |
| Cc1cccc(C)c1N1CCN(S(=O)(=O)c2ccc(F)cc2)CC1 | > 50 µM (inactive) |
| CCCSc1nnc(-c2c[nH]c3ccccc23)n1CC | > 50 µM (inactive) |
| O=C(Cc1ccccc1)NNc1c2ccccc2nc2ccccc12 | > 50 µM (inactive) |
| CN1CCN(C(=O)c2ccccc2Nc2ccc(SC(F)F)cc2)CC1 | > 50 µM (inactive) |
| Cc1ccc(S(=O)(=O)N(C)Cc2ccc(C(=O)N/N=C3\CC(=O)CC(C)(C)C3)cc2)cc1 | > 50 µM (inactive) |
| COc1ccccc1CNC(=O)Cn1ccsc1=N | > 50 µM (inactive) |
| COC(=O)C1=CN(Cc2ccc(OC)cc2)C=C(C(=O)OC)C1c1ccc(O)c(OC)c1 | > 50 µM (inactive) |
| CCOc1ccc(OCc2ccc(C(=O)N(CC)CC)cc2)cc1 | > 50 µM (inactive) |
| COc1cc2c(cc1OC)CN(Cc1cc(=O)oc3cc(C)c(Cl)cc13)CC2 | > 50 µM (inactive) |
| CC(C)CCNC(=O)C(c1ccco1)N(Cc1ccc(F)cc1)C(=O)c1snc(C(N)=O)c1N (stereo not drawn) | > 50 µM (inactive) |
| O=C(Cn1nnc2ccccc21)N/N=C\c1cccs1 | > 50 µM (inactive) |
| C=CCN1C=CC(=CC=C(C#N)C#N)C=C1 | 29.1 µM |
| Cn1c(N/N=C/c2cc3ccccc3nc2Cl)nc2ccccc21 | > 120 µM (inactive) |

| Compound | IC50 |
| --- | --- |
| CCOC(=O)c1ccccc1NC(=O)COC(=O)C(CCSC)NC(=O)COc1ccccc1 (stereo not drawn) | > 50 µM (inactive) |
| Cc1ccc2nc(NCCNC(=O)c3ccccc3)c(C#N)cc2c1 | 3.62 µM |
| CCc1nnc(NC(=O)c2c(C)nn(-c3ccccc3)c2Cl)s1 | > 50 µM (inactive) |
| N#CCCN(C(=O)Nc1ccc(Cl)cc1)c1ccccc1 | > 50 µM (inactive) |
| Cc1sc2nc(COC(=O)Cc3ccccc3)[nH]c(=O)c2c1C | > 50 µM (inactive) |
| COc1ccc(Br)cc1/C=C/C(=O)NC(=S)Nc1ccc(CN2CCOCC2)cc1 | > 50 µM (inactive) |
| CC1CC(C)CN(c2cc(=O)n(Cc3ccc(F)cc3)c(=O)[nH]2)C1 (stereo not drawn) | > 50 µM (inactive) |
| C/C(N)=C(/C#N)C(=O)COc1ncnc2ccccc12 | > 50 µM (inactive) |
| N=C(N)SCc1nc2ccccc2c(=O)n1-c1ccccc1Cl | > 50 µM (inactive) |
| CS(=O)(=O)c1nsc2nc(=O)c(/C=C3\C=Nc4ccccc43)c(N)n12 | 15.1 µM |
| N#C/C(=C/c1ccc(N2CCCCC2)o1)C(=O)NCCc1c[nH]c2ccccc12 | 0.936 µM |
| NC(=S)Cc1nc(-c2ccc(Cl)cc2)cs1 | > 50 µM (inactive) |
| CC(=O)Cc1nsc(NC(=O)c2ccc(-c3cccc(C(F)(F)F)c3)o2)n1 | > 50 µM (inactive) |
| Cc1cccc(NC(=O)c2cc3c(s2)-c2c(C)cccc2OC3)n1 | 7.45 µM |
| COCCNC(=O)C(C)OC(=O)c1cc2occc2n1C (stereo not drawn) | > 50 µM (inactive) |
| CC1(C(=O)O)C=CCN1C(=O)c1ccccc1 (stereo not drawn) | > 50 µM (inactive) |
| CCOC(=O)c1ccc(NC(=O)CSc2nc(C)nc3c2c(=O)n(C)c(=O)n3C)cc1 | > 50 µM (inactive) |
| COc1ccc(-c2c(C)c3ccc(O)cc3oc2=O)cc1 | 36.3 µM |
| COc1ccc(CCn2c(C)nc3ccccc3c2=O)cc1OC | > 50 µM (inactive) |
| Fc1ccccc1N1CC(c2ccccc2)C(c2cccs2)=N1 (stereo not drawn) | 20.8 µM |
| CCc1ccccc1NC(=O)/C(C#N)=C\c1ccc(Sc2ccccc2)o1 | > 50 µM (inactive) |
| Cn1cnc(S(=O)(=O)N2CCN(c3ccc(Cl)cc3)CC2)c1 | > 50 µM (inactive) |
| COc1ccc(C(CNC(=O)c2cc(F)c(F)c(F)c2F)N2CCOCC2)cc1 (stereo not drawn) | > 50 µM (inactive) |
| COc1ccc(CNCc2c(O)c(Cl)cc3c(C)c(C)c(=O)oc23)c(OC)c1 | 6.06 µM |
| CCN(CC)S(=O)(=O)c1ccc(OC)c(NC(=O)C2CC(=O)N(c3ccc(C)cc3)C2)c1 (stereo not drawn) | > 50 µM (inactive) |
| CCN1CCc2c(sc(NC(=O)C3CCCCC3)c2C(=O)OC)C1 | > 50 µM (inactive) |

| Compound | IC50 |
| --- | --- |
| CCc1ccc(C(=O)c2cc3ccc(O)cc3oc2=O)cc1 | 11.7 µM |
| Cc1ccc(S(=O)(=O)N2CCCN(c3nc4cc(C)ccc4cc3C#N)CC2)cc1 | 29.8 µM |
| CCn1c2ccccc2c2cc(NC(=O)CNC)ccc21 | > 50 µM (inactive) |
| Cc1ccc(C)c(NC(=S)N(C)CCc2ccccn2)c1 | > 50 µM (inactive) |
| O=[N+]([O-])c1ccc(S(=O)(=O)Nc2nnc(C3CCCCC3)s2)cc1 | > 50 µM (inactive) |
| Oc1ccc(Br)cc1/C=N/n1c(-c2ccccc2)n[nH]c1=S | > 50 µM (inactive) |
| CCOC(=O)c1c(/N=C/c2ccc(C)cc2O)sc2c1CCN(C)C2 | > 50 µM (inactive) |
| CC1=NN(C(=O)c2ccccc2)C(O)(c2ccc(Br)cc2)C1 (stereo not drawn) | > 50 µM (inactive) |
| CCOc1cc(NS(=O)(=O)c2ccc(NC(C)=O)cc2)c(OCC)cc1NC(=O)C(C)C | > 50 µM (inactive) |
| CCOC(=O)c1sc(NC(=O)CSc2nc(C)cc(C)n2)c(C#N)c1C | > 50 µM (inactive) |
| Cc1cnc(=O)[nH]c1SCC(=O)c1ccc(F)cc1 | > 50 µM (inactive) |
| N#Cc1c(N)nc2c(c1-c1ccc(F)cc1)CCC2 | 11 µM |
| COc1ccc(OCC(=O)NNc2c3ccccc3nc3ccccc23)cc1 | > 50 µM (inactive) |
| c1ccc2sc(NC3=NCN(CCN4CCOCC4)CN3)nc2c1 | > 50 µM (inactive) |
| Cc1sc2c(c1C)C(=O)NC(c1ccccc1F)N2 (stereo not drawn) | > 50 µM (inactive) |
| O=C(Cn1c2ccccc2c(=O)c2ccccc21)Nc1ccccc1F | 5.51 µM |
| CCC(C)c1ccc(OCC(=O)O)cc1 (stereo not drawn) | > 50 µM (inactive) |
| C=CCn1c(SCC(=O)Nc2sccc2C(N)=O)nc2ccccc2c1=O | > 50 µM (inactive) |
| CC(C)OC(=O)c1c(N)n(CCCN2CCOCC2)c2nc3ccccc3nc12 | 25.8 µM |
| Cc1ccc(OCc2nnc(SCC(=O)CC(=O)Nc3ccccc3)o2)cc1 | > 50 µM (inactive) |
| CSc1nsc2nc(=O)c(/C=C3\C=Nc4ccccc43)c(N)n12 | 22.6 µM |
| Cc1ccc(N2CC(=O)N(NC(=O)c3sc4nc(C)cc(C)c4c3N)CC2=O)cc1 | > 50 µM (inactive) |
| Cc1nn(C(=O)c2ccco2)c(C)c1CN1C(=O)c2ccccc2C1=O | > 50 µM (inactive) |
| CC(C)c1ccccc1NC(=O)C1C2C=CC(C2)C1C(=O)O (stereo not drawn) | > 50 µM (inactive) |
| Cc1ccc(C2=CC(c3ccccc3)n3ncnc3N2)c(C)c1 (stereo not drawn) | > 50 µM (inactive) |
